In PubChem BioAssay AID720662 (NMMLSC, 2013) one finds inhibition data, which are given here for 75 compounds.

The term inhibition denotes the relative decrease from the control value, in per cent.

Active and inactive are the calls of the source.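 How the source made its calls: active means inhibition of esterase secretion above 50%; inactive means inhibition of esterase secretion below 50%.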

This experiment relates to TALL-104 cells, BLT esterase secretion, DTNB absorbance. Nature of the experiment: inhibitors of granule serine esterase release, confirmation, TALL-104 cells, BLT/DTNB absorbance, CherryPick01 (AID 720662). Particulars: active compounds read high; dose or concentration not given here.
For `CCCNC(=O)Cn1sc2nc(C)cc(C)c2c1=O`, the inhibition is 38% (inactive).

In the case of `O=C(CN1C(=O)/C(=C\c2cccc(Br)c2)Oc2ccccc21)NCCCN1CCOCC1`, the inhibition was 24% (inactive). The value for `CC(C)CNC(=O)c1c(N)n(Cc2ccc3c(c2)OCO3)c2nc3ccccc3nc12` was 3% (inactive); that for `c1ccc(CNc2nc(NCC3CC3)nc3cc(-c4ccccc4)sc23)cc1` was 86%. With `O=C1Nc2ccc(Br)cc2/C1=C/C(=O)c1ccccc1`, the inhibition was 3% (inactive). Take `O=C1CC(Sc2nnnn2-c2ccccc2)C(=O)N1c1cccc(Cl)c1` (stereo not given): the inhibition was 72%. With `COC(=O)c1c(NC(=O)c2ccc(C(=O)c3ccccc3)cc2)sc2c1CC(C)(C)NC2(C)C`, the inhibition was 5% (inactive).

With `N#Cc1ccc(NC(=O)Nc2ccc(Oc3ccc(NC(=O)Nc4ccc(C#N)cc4)cc3)cc2)cc1`, the inhibition is 36% (inactive). Consider `CCOC(=O)c1cc(-c2csc(Nc3c(C)cc(C)cc3C)n2)on1`, for which the inhibition was 68%. `CN(c1ccccc1)S(=O)(=O)c1cccc(C(=O)NCCc2c[nH]c3ccccc23)c1`: the inhibition is 23% (inactive). The value for `O=c1c2ccccc2sn1-c1ccccc1F` was 38% (inactive); that for `CCCCC[C@@H](C)N1C[C@@H](COCc2ccccc2)Oc2cc(N3CC[C@@H](N(C)C)C3)ccc2S1(=O)=O` was 76%; that for `CCOc1ccc2[nH]c3c(N4CCc5ccccc5C4)ncnc3c2c1` was -5% (inactive). Consider `O=c1c2ccccc2sn1-c1ccccc1`, for which the inhibition was 68%.

As for `COC(=O)c1c(NC(=O)c2nc3ccccc3s2)sc2c1CC(C)(C)NC2(C)C`, the inhibition is 51%. `Cc1cc(C)c2nc(C)cc(N/N=C/c3ccc(O)cc3)c2c1`: the inhibition was 88%. The result for `COc1ccc(-c2cc(NC=O)c3ncc(-c4cccc(OC)c4)n3c2)cc1` reads 77%; that for `COc1ccc(N2C(=O)CC(Sc3nnc(-c4ccccc4)o3)C2=O)cc1` (stereo not given), 89%; that for `CN(C)CCCNC(=S)NCC(c1ccc(Cl)cc1Cl)c1c[nH]c2ccccc12` (stereo not given), -3% (inactive).

Regarding `Cn1cncc1C#Cc1c(-c2ccc(S(C)(=O)=O)cc2)sc2ccccc12`, the inhibition is 13% (inactive). On to `COc1ccc(-n2sc3ccccc3c2=O)cc1`, for which the inhibition was 45% (inactive). For the compound `CCCS(=O)(=O)Nc1ccc(Nc2c3ccccc3nc3ccccc23)c(OC)c1`, the inhibition is 81%. Regarding `COc1ccc([N+](=O)[O-])cc1Nc1c2ccccc2nc2ccccc12`, the inhibition is 10% (inactive). In the case of `CC(=O)Nc1ccc2sn(-c3ccccc3)c(=O)c2c1`, the inhibition was 20% (inactive). For `CCC(=C(c1ccc(OC)cc1)c1ccc(OC)cc1)c1cn(CC(O)CN2CCN(C)CC2)c2ccccc12` (stereo not given), the inhibition is 1% (inactive). Regarding `CC(=O)Nc1ccc2c(=O)n(-c3ccccc3)sc2c1`, the inhibition is 25% (inactive).

Consider `CCOC(=O)c1nnc(-c2ccccc2)nc1Sc1ccccc1Cl`, for which the inhibition was -8% (inactive). In the case of `O=C(Nc1ccc(F)cc1)c1nc(S(=O)(=O)Cc2ccccc2)ncc1Cl`, the inhibition is 97%. Take `CC1(C(=O)OCC(=O)Nc2nc(-c3ccc(F)c(F)c3)cs2)CC1(Cl)Cl` (stereo not given): the inhibition is -8% (inactive). The result for `COC(=O)[C@]12CCCCC=C1N(Cc1cccc3ccccc13)C(=O)[C@H](CC(=O)NCc1ccc(OC)c(OC)c1)C2` reads 14% (inactive). Turning to `CCOc1ccc2nc(C)cc(Nc3cccc([N+](=O)[O-])c3)c2c1`, the inhibition was 95%. Turning to `COc1ccc(-c2cc(NC=O)c3ncc(-c4ccccc4)n3c2)cc1OC`, the inhibition was 63%. The value for `Fc1ccc(/C=C\c2nccc3c2[nH]c2ccccc23)cc1` was 86%; that for `COc1ccccc1CNc1nc(NCc2ccc(C(C)C)cc2)c2sccc2n1` was 54%. The result for `Cc1ccc(-n2nnc3c(=O)oc4ccccc4c32)cc1` reads 94%; that for `COc1cccc(NC(=O)Nc2nc(-c3ccc(OC)c(OC)c3)cs2)c1`, 96%. For `O=C1C=CC(=O)N1N(c1ccccc1)c1ccccc1`, the inhibition is 27% (inactive). With `CN1CCN(c2cc(-c3ccccc3)nc3cc(-c4ccc(F)cc4)nn23)CC1`, the inhibition is 79%.

With `CC1COCC(C)N1C1=C(Cl)C(=O)c2ccccc2C1=O` (stereo not given), the inhibition is 97%. `CCOc1cc(CNCCc2ccc(S(N)(=O)=O)cc2)ccc1OCc1ccc(Cl)cc1`: the inhibition is 90%. On to `O=CNc1cc(-c2ccsc2)cn2c(-c3ccccc3)cnc12`, for which the inhibition is 41% (inactive). `Cc1ccc(Nc2nc(NCc3ccco3)c3ccccc3n2)cc1`: the inhibition is 12% (inactive). In the case of `Nc1c(C(=O)NCc2ccc(F)cc2)c2nc3ccccc3nc2n1CCCN1CCOCC1`, the inhibition is 15% (inactive). For the compound `CC(C)(c1ccccc1)c1ccc(OCC(O)CNC2CCN(Cc3ccccc3)CC2)cc1` (stereo not given), the inhibition was 83%. On to `CCc1ccc(/C=C2/Sc3ccccc3N(CC(=O)NCCCN3CCOCC3)C2=O)cc1`, for which the inhibition is 14% (inactive). Regarding `COc1cccc(-c2cnc3c(NC=O)cc(-c4ccccc4)cn23)c1`, the inhibition was 43% (inactive). `CC1=NOC(=O)/C1=C/c1ccc(-c2ccc(Cl)cc2)o1`: the inhibition was 73%.

For `CCCCC[C@@H](C)N1C[C@@H](COCc2ccccc2)Oc2cc(N3CC[C@H](N(C)C)C3)ccc2S1(=O)=O`, the inhibition was 74%.

`COc1ccccc1CNc1nc(NCc2ccc3occc3c2)c2sccc2n1`: the inhibition is 22% (inactive). For `O=C(Cn1sc2ccccc2c1=O)NC12CC3CC(CC(C3)C1)C2`, the inhibition was 33% (inactive). Regarding `COc1cccc(-c2cnc3c(NC(C)=O)cc(-c4ccsc4)cn23)c1`, the inhibition is 64%.

For the compound `COc1cc(-c2coc3c(C(=O)NCc4ccc(OC)c(OC)c4)cccc23)ccc1O`, the inhibition is 20% (inactive).

Consider `O=S(=O)(c1ccccc1)c1nnn2c1nc(NC1CCN(Cc3ccccc3)CC1)c1cc(Cl)ccc12`, for which the inhibition is 88%.

Take `CN1CCN(CCCNC(=O)c2ccc(/C=C3\Sc4ccccc4N(Cc4ccc(F)cc4)C3=O)cc2)CC1`: the inhibition was -12% (inactive). Regarding `COc1cccc(-c2cnc3c(NC(C)=O)cc(-c4ccccc4OC)cn23)c1`, the inhibition was 68%. Consider `OC(CNCC(c1ccc(Cl)cc1Cl)c1c[nH]c2ccccc12)c1ccccc1` (stereo not given), for which the inhibition is 2% (inactive). Turning to `CCOc1ccccc1CNC(=O)C1CCN(c2nnc(C)c3c(C)n(-c4ccc(C)cc4)nc23)CC1`, the inhibition was 94%. The result for `CCCCn1c(=N)n(CC(=O)c2ccc(Br)s2)c2ccccc21` reads 91%; that for `Cc1ccc(S(=O)(=O)n2ccc3c(OCCOCCNCc4ccc(F)cc4)cccc32)cc1`, 67%. The result for `CN(C)CCNC(=O)c1ccc(-c2cn3c(-c4ccc(Oc5ccccc5)cc4)cnc3cn2)cc1` reads 14% (inactive); that for `Cc1cc(N2CCN(c3nc(-c4ccc([N+](=O)[O-])cc4)cs3)CC2)c2ccccc2n1`, 80%; that for `CCCCCCSc1cccc(-c2nc3ccccn3c2NCc2ccccc2)c1`, 7% (inactive). With `O=C(Cn1sc2ccccc2c1=O)Nc1ccc(F)cc1`, the inhibition was 38% (inactive). In the case of `CCc1nc2ccc(C(=O)NC3CCN(Cc4ccccc4)CC3)cn2c1N(C)Cc1cc2ccccc2s1`, the inhibition is -4% (inactive). With `O=C(OCc1ccccc1)N(CCCCN(CCCNCc1ccccc1)C(=O)OCc1ccccc1)CCCNCc1ccccc1`, the inhibition was 88%. On to `CCc1ccc2nc(N(CCCN(C)C)C(=O)c3ccc(S(=O)(=O)N4CCc5ccccc5C4)cc3)sc2c1`, for which the inhibition was 67%. Regarding `CCOC(=O)c1c(NC(=O)COc2ccccc2OCC)sc2c1CC(C)(C)NC2(C)C`, the inhibition is 55%. On to `CCOC(=O)c1c(CSc2ccccc2)n(C)c2cc(Br)c(O)c(CN(C)C)c12`, for which the inhibition was 25% (inactive). In the case of `CCN(CC)CCCNc1ccc(-c2nnc(-c3ccc(OCC(C)C)cc3)o2)cn1`, the inhibition was 52%. The value for `N#Cc1c(Nc2ccccc2Cl)s[nH]c1=O` was 92%; that for `CCOc1ccc2nc(N(CCCN(C)C)C(=O)c3ccc(S(=O)(=O)N4CCc5ccccc5C4)cc3)sc2c1` was 91%. The value for `CCCCC[C@@H](C)N1C[C@H](COCc2ccccc2)Oc2cc(N3CC[C@@H](N(C)C)C3)ccc2S1(=O)=O` was 64%; that for `CC1=C(C)CS(=O)N(S(=O)(=O)c2ccc(Cl)cc2)C1` (stereo not given) was 99%; that for `O=c1c2ccc(F)cc2sn1-c1ccccc1` was 61%.

As for `Cn1sc(=O)c2cc(S(=O)(=O)NC3CC3)ccc21`, the inhibition is 63%.
